Assay: molar heat capacity at constant pressure
Conditions: 101.33 kPa, Crystal, Vacuum adiabatic calorimetry

O=C([O-])c1ccccc1.O=C([O-])c1ccccc1.[Ba+2] [barium benzoate]
Conditions	molar heat capacity at constant pressure [J/K/mol]
77.78 K	109.64
79.5 K	111.79
82.08 K	114.77
84.57 K	117.57
86.98 K	119.65
89.39 K	121.92
91.65 K	124.31
93.86 K	126.6
96.1 K	128.79
98.25 K	130.89
100.3 K	132.67
102.4 K	134.86
104.4 K	137.21
106.5 K	139.25
108.3 K	141.18
110.3 K	142.99
112.2 K	144.86
114.1 K	146.37
115.9 K	148.24
117.8 K	150.2
119.6 K	152.24
122.4 K	154.37
125.9 K	157.49
128.8 K	160.12
131.6 K	162.83
134.5 K	165.78
137.4 K	168.03
140.3 K	170.89
143.1 K	173.54
146.1 K	176.75
148.9 K	178.82
152.8 K	182.27
154.7 K	184.19
157.6 K	186.99
160.4 K	189.18
163.4 K	191.95
166.3 K	194.11
169.1 K	197.21
172 K	199.98
174.9 K	202.6
177.8 K	204.53
180.6 K	207.13
184.7 K	211.18
188.6 K	214.68
191.5 K	216.93
194.4 K	219.24
197.2 K	221.9
200.2 K	224.02
203.1 K	226.01
206 K	228.46
208.9 K	231.14
211.8 K	233.77
214.6 K	235.99
217.5 K	238.64
220.5 K	240.68
223.4 K	243.49
226.3 K	245.79
229.1 K	248.3
232 K	250.4
235 K	253.03
238 K	255.71
242.6 K	259.3
245.5 K	262.07
248.3 K	264.47
251.2 K	266.71
254.2 K	269.22
257 K	270.83
259.8 K	272.78
262.7 K	276.16
265.6 K	277.74
268.6 K	279.79
271.6 K	282.06
274.5 K	284.16
277.5 K	286.12
280.4 K	288.42
283.3 K	290.79
286.3 K	292.92
289.2 K	295.05
292 K	297.35
294.9 K	299.58
297.9 K	301.75
300.8 K	303.71
303.6 K	305.99
306.5 K	308.5
309.3 K	310.54
312.2 K	312.73
315.2 K	314.63
318.2 K	316.73
321.2 K	318.3
324.1 K	320.78
327 K	322.91
330 K	325.19
332.9 K	327.09
335.9 K	329.01
338.7 K	330.94
341.6 K	333.36
344.6 K	335.34
347.5 K	337.3
350.3 K	339.28
353.2 K	340.83
356.2 K	342.81
359 K	344.74
361.9 K	346.43
364.8 K	348.25
367.6 K	350.41
370.5 K	352.35
373.5 K	354.08
376.4 K	355.62
379.4 K	358.05
382.4 K	359.77
385.3 K	361.34
388.3 K	363.44
390.7 K	364.99
393 K	366.42
395.9 K	368.64
398.9 K	370.39
401.9 K	371.91
